# Assay results from patent US20200209181A1, “ELECTROCHEMICAL METHOD AND DEVICE FOR DETECTING THE EFFECT OF ANTICANCER DRUGS” (Nano Hesgarsazan Salamat Arya, priority 2016, published 2020).
# Experiments:
# Format in all cases: cell-based, human
# MCF-7 cells [1] = assay: Cyclic voltammetry (CV) response of MCF-7 cells attached on SiNW-based biosensor after drug treatment
# Excerpt: For CV characterization, three-electrode electrochemical cyclic voltammetry may be performed using the electrochemical workstation. Instead of the system electrodes, the SiNW-based biosensor including integrated SiNW electrodes may be used that is designed and fabricated pursuant to the teachings of the present disclosure. CV assay may be performed between the integrated SiNW covered working electrode 103 and counter electrode 104, with an on chip reference electrode 105 (represented in FIGS. 1 and 5A). The reference electrode may be initially calibrated by an Ag/AgCl reference electrode in a solution of about 1 mM ferrocene carboxylic acid with about 1 mM potassium chloride. CV studies may be performed using DC voltage and applying no AC frequency. For CV data recording, measurements may be carried out at about −0.8 V to 0.8 V at a scan rate of about 100 mv/s. In this example, the effect of Mebendazole (MBZ), which is an antitubulin drug that induces tubulin depolymerization in cancer cells, may be investigated via an exemplary electrochemical method of the present disclosure. The MCF-7 cells attached on SiNWs of an exemplary biosensor of the present disclosure may be treated with different doses of MBZ and the electrochemical response of an individual non-treated (hereinafter “CTRL”) cell and treated cells may be monitored. […]
# MCF-7 cells [2] = assay: Differential pulse voltammetry (DPV) response of MCF-7 cells attached on SiNW-based biosensor after drug treatment; settings: for Absolute DPV current peak: about 2 nano-mole per liter MBZ; for Absolute DPV: about 10.5 nano-mole per liter MBZ
# Excerpt: For DPV measurement, a derivative of linear sweep voltammetry, with a series of regular voltage pulses superimposed on the potential linear sweep. The current may be sampled twice, just before the pulse application and again, late in the pulse lifetime. The current may be measured immediately before each potential change, then the current difference may be plotted as a function of potential. By sampling the current just before the potential was changed, the effect of the charging current may be decreased. In this example, the effect of Mebendazole (MBZ), which is an antitubulin drug that induces tubulin depolymerization in cancer cells, may be investigated via an exemplary electrochemical method of the present disclosure. The MCF-7 cells attached on SiNWs of an exemplary biosensor of the present disclosure may be treated with different doses of MBZ and the electrochemical response of an individual non-treated (hereinafter “CTRL”) cell and treated cells may be monitored. Accordingly, exemplary MCF-7 cell lines isolated from grade I human breast tumors may be used as cancer cells. The MCF-7 cells may be maintained in a CO2 incubator containing about 5% CO2 and at a temperature of about 37° C. in a RPMI-1640 medium supplemented with a 5% fetal bovine serum, and 1% penicillin/streptomycin. The fresh medium may be replaced every other day. Prior to each experiment, cells may be trypsinized to be detached from the substrate and re-suspended on the SiNW electrodes of an exemplary biosensor of the present disclosure. To minimize the effect of trypsinization, the procedure may be done in less than about 4 minutes at a room temperature of about 20° C. to about 22° C. The biosensor including the attached cells may be held in an incubator for about 4 hours to achieve cells attachment on the SiNWs. Then the MBZ drug with a low concentration (about 2 nano-mole per liter) and with a high concentration (about 10.5 nano-mole per liter) may be added to the cells. […]
# MCF-7 cells [3] = assay: Cell cycle progression of drug treated MCF-7 cells by flowcytometry analysis
# Experimental: Accordingly, exemplary MCF-7 cell lines isolated from grade I human breast tumors may be used as cancer cells. The MCF-7 cells may be maintained in a CO2 incubator containing about 5% CO2 and at a temperature of about 37° C. in a RPMI-1640 medium supplemented with a 5% fetal bovine serum, and 1% penicillin/streptomycin. The fresh medium may be replaced every other day. Prior to each experiment, cells may be trypsinized to be detached from the substrate and re-suspended on the SiNW electrodes of an exemplary biosensor of the present disclosure. To minimize the effect of trypsinization, the procedure may be done in less than about 4 minutes at a room temperature of about 20° C. to about 22° C. The biosensor including the attached cells may be held in an incubator for about 4 hours to achieve cells attachment on the SiNWs. Then the MBZ drug with a low concentration (about 2 nano-mole per liter) and with a high concentration (about 10.5 nano-mole per liter) may be added to the cells. The signal recording and biological assays may be investigated at about 2, 6 and 10 hours after addition of the drug. In addition, cell cycle progression for CTRL and drug treated MCF-7 cells may be determined by flowcytometry analysis that are shown in FIG. 9A (for CTRL cells), FIG. 9B (for treated cells with about 2 nano-mole per liter of MBZ) and FIG. 9C (for treated cells with about 10.5 nano-mole per liter of MBZ). The cell's fractions in apoptotic (part 901), G0/G1 (part 902), S (part 903) and G2/M (part 904) cycles are observable in all of panels. Also, the state of counted cells for each of these three situations is represented at the Right side of the figures. […] But, proportion of G0/G1 fraction (part 902) was changed in MBZ incubated samples. The peak of G0/G1 was about 1300 in CTRL sample (FIG. 9A) meanwhile it was reduced to about 800 in MBZ (about 2 nano-mole per liter) treated cells (FIG. 9B). The result can be confirmed by side scatter versus forward scatter (SSC-FSC) diagram as a strong sign of cells granularity (represented at Right side of FIGS. 9A, 9B and 9C). […] By increasing the dose of MBZ to about 10.5 nM (FIG. 9C), apoptotic behavior (part 901) of the cells was affected. […] Such disorders in the cycle of the cells after MBZ treatment would be well demanded by affected anodic/cathodic response of the cells measured by SiNWs electrodes.
# [4] = about 2 nano-mole per liter MBZ
smiles,measurement,setting,value
"COC(=O)Nc1nc2ccc(C(=O)c3ccccc3)cc2[nH]1 [MBZ, Mebendazole]",anodic and cathodic spikes in CV diagrams,"MCF-7 cells [1]; MBZ about 2 and about 10.5 nano-mole per liter, 2 hours after drug incubation, MCF-7 on SiNW electrodes",Both anodic and cathodic spikes may be observed
same,height of the CV spikes,"MCF-7 cells [1]; MBZ dose increased to about 10.5 nano-mole per liter, versus about 2 nano-mole per liter",increased by nearly three orders
same,Absolute DPV current peak,MCF-7 cells [2]; 2 hours after treatment (CTRL about 5 nA),about 300 nA
same,Absolute DPV current peak,MCF-7 cells [2]; about 12 hours after treatment,about 900 nA
same,Absolute DPV,MCF-7 cells [2]; 12 hours,about 2000 nA
same,Absolute DPV,MCF-7 cells [2]; after 2 hours,about 1400
same,amount of the cells in G0/G1 phase,"MCF-7 cells [3]; about 10.5 nM MBZ, similar time",sharper reduction
same,G2/M fraction relative to CTRL,MCF-7 cells [3]; [4],less than half
same,apoptotic behavior of MCF-7 cells,MCF-7 cells [3]; [4],did not induce the apoptotic behavior
same,peak of G0/G1,MCF-7 cells [3]; about 2 nano-mole per liter MBZ (CTRL about 1300),about 800
same,apoptotic cells with hypodiploid DNA (subG1 fraction),"MCF-7 cells [3]; about 2 nano-mole per liter MBZ, compared with CTRL sample",slightly increased
